Reference: US10744173B2, “Traditional Chinese medicine compositions for alleviating stress” (Infinitus (China) Company Ltd., priority 2017, dated 2020)

What was measured:
Type in all cases: in vivo
cortisol (CORT) = assay: Neurotransmitter measurement by ELISA: CORT; conditions: trunk blood
Procedure: (§1) The rats were housed in individual cages with light and temperature control (temperature: 21±2° C.; lights on at 8:00 AM and off at 8:00 PM). Food and water were available ad libitum. All experimental procedures were carried out in strict accordance with the National Institutes of Health guidelines for care and use of experimental animals. After an initial habituation period of 1 week, all animals were given access to bottle containing a sucrose solution in tap water for 1 hour and were tested for the baseline data of the sucrose preference test. According to the baseline data, the animals were divided into 9 groups (n=10-12 animals/each group), that is the control group, the stressed group, the stressed+fluoxetine group, the stressed+Example 1 group, the stressed+ginseng extract group, the stressed+Radix paeoniae Alba extract group, the stressed+Tree Peony Bark extract group, the stressed+Sharpleaf Galangal Fruit extract group, and the stressed+Radix Polygonum multiflorum Preparata extract group. The animals were subjected to 2 to 5 different mild stressors per day for 5 weeks. The mild stressors included water and food deprivation, cage tilt, continuously lighting, cage soiling, stroboscopic lighting, restricted access to food, and tail pinching. Control animals were not subjected to the stress protocol, and the stressed animals were subjected to the mild stressors and given the same amount of water as control group. The animals of the stressed+fluoxetine group were subjected to the mild stressors and treated with fluoxetine capsules. The animals of the stressed+Example 1 group were subjected to the mild stressors and treated with the composition of Example 1. The animals of the stressed+single extract group were subjected to the mild stressors and treated with the single extract.
(§2) The rats were sacrificed and the trunk blood was collected into the collection tubes coated with standard heparin. […] The levels of corticotropin-releasing hormone (CRH), adrenocorticotropic hormone (ACTH) and cortisol (CORT) were detected by ELISA. […]

[1] = tested on: corticotropin-releasing hormone (CRH); assay: Neurotransmitter measurement by ELISA: CRH; conditions: trunk blood
Procedure: as §1, §2

[2] = tested on: chronically stressed rats; assay: Sucrose preference test in chronically stressed rats
Procedure: as §1
The rats could select between two bottles of liquid freely, one with 0.8% sucrose solution and one with tap water, after 23 h food and water deprivation. To avoid the rats prefer to drink one side of the water, the position of the two bottles were exchanged every half an hour. Tap water consumption and sucrose consumption were measured by weighting the bottles, and the sucrose preference were calculated based on the following formula: […]
The rats were housed in individual cages with light and temperature control (temperature: 21±2° C.; lights on at 8:00 AM and off at 8:00 PM). Food and water were available ad libitum. All experimental procedures were carried out in strict accordance with the National Institutes of Health guidelines for care and use of experimental animals. After an initial habituation period of 1 week, all animals were given access to bottle containing a sucrose solution in tap water for 1 hour and were tested for the baseline data of the sucrose preference test. […]

CRH, ACTH and CORT = assay: Neurotransmitter measurement, overall statement on CRH, ACTH and CORT; conditions: chronically stressed rats
Procedure: The rats were housed in individual cages with light and temperature control (temperature: 21±2° C.; lights on at 8:00 AM and off at 8:00 PM). Food and water were available ad libitum. All experimental procedures were carried out in strict accordance with the National Institutes of Health guidelines for care and use of experimental animals. After an initial habituation period of 1 week, all animals were given access to bottle containing a sucrose solution in tap water for 1 hour and were tested for the baseline data of the sucrose preference test. According to the baseline data, the animals were divided into 9 groups (n=10-12 animals/each group), that is the control group, the stressed group, the stressed+fluoxetine group, the stressed+Example 1 group, the stressed+ginseng extract group, the stressed+Radix paeoniae Alba extract group, the stressed+Tree Peony Bark extract group, the stressed+Sharpleaf Galangal Fruit extract group, and the stressed+Radix Polygonum multiflorum Preparata extract group. The animals were subjected to 2 to 5 different mild stressors per day for 5 weeks. […]
as §2

[3] = tested on: adrenocorticotropic hormone (ACTH); assay: Neurotransmitter measurement by ELISA: ACTH; conditions: trunk blood
Procedure: as §1, §2

[4] = Comparative study (Comparative Examples 1-7), chronically stressed rats
[5] = Experimental Example 1, chronically stressed rats
[6] = Experimental Example 2, chronically stressed rats

For `CNCCC(Oc1ccc(C(F)(F)F)cc1)c1ccccc1` (centres unmarked) [fluoxetine], the CORT (cortisol (CORT); [4]) was 52.46 ± 6.05 ng/mL, the CORT (cortisol (CORT); [5]) was 52.09 ± 5.95 ng/mL and the CORT (cortisol (CORT); [6]) was 52.09 ± 5.95 ng/mL. It also gave a CRH [1, 4] of 5.11 ± 0.29 ng/mL, a CRH [1, 5] of 5.13 ± 0.25 ng/mL and a CRH [1, 6] of 5.13 ± 0.25 ng/mL. The “Sucrose Preference” value ([2]; Comparative study (Comparative Example 1-7), mild stressors for 5 weeks, 0.8% sucrose vs tap water) was 0.7502 ± 0.0471, the “Sucrose Preferenc” value ([2]; Experimental Example 1, mild stressors for 5 weeks, 0.8% sucrose vs tap water) was 0.7431 ± 0.0565 and the “Sucrose Preference” value ([2]; Experimental Example 2, mild stressors for 5 weeks, 0.8% sucrose vs tap water) was 0.7431 ± 0.0565. The “Change of sucrose preference compared with the stressed group (in words)” value ([2]; compared with the stressed group) was “significantly increase the sucrose preference”, the “Effect on the abnormal levels of CRH, ACTH and CORT caused by chronic stress (in words)” value (CRH, ACTH and CORT) was “improve the abnormal levels of CRH, ACTH and CORT” and the ACTH [3, 4] was 32.73 ± 2.66 pg/mL. The ACTH [3, 5] was 33.83 ± 2.26 pg/mL and the ACTH [3, 6] was 33.83 ± 2.26 pg/mL.
